From US11497752B2, “Compounds and uses thereof” (Foghorn Therapeutics Inc., priority 2018, dated 2022)

Assays:
BRM = BRM (Homo sapiens, UniProt P51531); test: ATPase catalytic activity of BRM (ADP-Glo in vitro biochemical assay)
BRG-1 = BRG-1 (Homo sapiens, UniProt P51532); test: ATPase catalytic activity of BRG-1 (ADP-Glo in vitro biochemical assay)
BRG-1, sequence (P51532 whole entry): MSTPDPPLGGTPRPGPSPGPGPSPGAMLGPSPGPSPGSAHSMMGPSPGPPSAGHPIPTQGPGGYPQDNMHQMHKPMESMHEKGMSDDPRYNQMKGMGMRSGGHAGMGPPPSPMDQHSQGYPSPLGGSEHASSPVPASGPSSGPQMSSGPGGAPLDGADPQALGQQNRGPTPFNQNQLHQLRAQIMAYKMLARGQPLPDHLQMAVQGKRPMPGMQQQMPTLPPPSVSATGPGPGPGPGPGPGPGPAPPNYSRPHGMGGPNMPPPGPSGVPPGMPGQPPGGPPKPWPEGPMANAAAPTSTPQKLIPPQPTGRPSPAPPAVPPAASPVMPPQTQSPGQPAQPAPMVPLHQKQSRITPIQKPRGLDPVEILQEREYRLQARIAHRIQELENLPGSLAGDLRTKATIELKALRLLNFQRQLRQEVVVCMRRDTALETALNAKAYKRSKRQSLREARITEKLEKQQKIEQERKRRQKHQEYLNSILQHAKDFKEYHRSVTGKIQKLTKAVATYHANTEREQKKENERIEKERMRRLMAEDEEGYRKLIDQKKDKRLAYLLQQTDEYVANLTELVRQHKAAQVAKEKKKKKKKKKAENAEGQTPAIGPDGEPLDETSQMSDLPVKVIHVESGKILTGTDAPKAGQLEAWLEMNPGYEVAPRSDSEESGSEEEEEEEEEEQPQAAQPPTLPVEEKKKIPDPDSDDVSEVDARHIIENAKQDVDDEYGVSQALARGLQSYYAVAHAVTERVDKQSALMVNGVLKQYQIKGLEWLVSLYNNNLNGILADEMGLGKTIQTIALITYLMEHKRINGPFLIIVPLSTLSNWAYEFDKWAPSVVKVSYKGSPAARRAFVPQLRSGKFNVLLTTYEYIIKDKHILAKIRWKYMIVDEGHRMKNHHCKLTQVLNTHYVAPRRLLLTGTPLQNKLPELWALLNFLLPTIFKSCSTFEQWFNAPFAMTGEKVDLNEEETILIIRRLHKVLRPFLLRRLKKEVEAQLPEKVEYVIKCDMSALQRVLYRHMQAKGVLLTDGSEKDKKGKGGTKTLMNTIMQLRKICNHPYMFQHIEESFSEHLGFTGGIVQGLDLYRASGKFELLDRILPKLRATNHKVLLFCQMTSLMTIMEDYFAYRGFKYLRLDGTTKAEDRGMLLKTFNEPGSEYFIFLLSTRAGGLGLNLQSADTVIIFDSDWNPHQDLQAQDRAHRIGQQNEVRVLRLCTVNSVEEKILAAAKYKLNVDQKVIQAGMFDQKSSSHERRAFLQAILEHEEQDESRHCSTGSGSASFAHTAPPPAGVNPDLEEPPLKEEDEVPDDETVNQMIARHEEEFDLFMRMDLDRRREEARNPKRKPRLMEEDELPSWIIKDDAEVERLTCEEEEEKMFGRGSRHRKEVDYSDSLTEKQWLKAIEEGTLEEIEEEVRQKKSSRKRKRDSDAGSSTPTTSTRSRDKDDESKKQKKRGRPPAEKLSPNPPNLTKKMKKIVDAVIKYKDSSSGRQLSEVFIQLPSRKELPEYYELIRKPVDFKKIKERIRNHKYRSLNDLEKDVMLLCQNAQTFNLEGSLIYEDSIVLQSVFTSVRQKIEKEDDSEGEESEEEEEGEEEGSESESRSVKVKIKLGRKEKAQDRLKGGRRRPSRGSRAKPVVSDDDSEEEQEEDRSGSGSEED

BRM, sequence (P51531 whole entry): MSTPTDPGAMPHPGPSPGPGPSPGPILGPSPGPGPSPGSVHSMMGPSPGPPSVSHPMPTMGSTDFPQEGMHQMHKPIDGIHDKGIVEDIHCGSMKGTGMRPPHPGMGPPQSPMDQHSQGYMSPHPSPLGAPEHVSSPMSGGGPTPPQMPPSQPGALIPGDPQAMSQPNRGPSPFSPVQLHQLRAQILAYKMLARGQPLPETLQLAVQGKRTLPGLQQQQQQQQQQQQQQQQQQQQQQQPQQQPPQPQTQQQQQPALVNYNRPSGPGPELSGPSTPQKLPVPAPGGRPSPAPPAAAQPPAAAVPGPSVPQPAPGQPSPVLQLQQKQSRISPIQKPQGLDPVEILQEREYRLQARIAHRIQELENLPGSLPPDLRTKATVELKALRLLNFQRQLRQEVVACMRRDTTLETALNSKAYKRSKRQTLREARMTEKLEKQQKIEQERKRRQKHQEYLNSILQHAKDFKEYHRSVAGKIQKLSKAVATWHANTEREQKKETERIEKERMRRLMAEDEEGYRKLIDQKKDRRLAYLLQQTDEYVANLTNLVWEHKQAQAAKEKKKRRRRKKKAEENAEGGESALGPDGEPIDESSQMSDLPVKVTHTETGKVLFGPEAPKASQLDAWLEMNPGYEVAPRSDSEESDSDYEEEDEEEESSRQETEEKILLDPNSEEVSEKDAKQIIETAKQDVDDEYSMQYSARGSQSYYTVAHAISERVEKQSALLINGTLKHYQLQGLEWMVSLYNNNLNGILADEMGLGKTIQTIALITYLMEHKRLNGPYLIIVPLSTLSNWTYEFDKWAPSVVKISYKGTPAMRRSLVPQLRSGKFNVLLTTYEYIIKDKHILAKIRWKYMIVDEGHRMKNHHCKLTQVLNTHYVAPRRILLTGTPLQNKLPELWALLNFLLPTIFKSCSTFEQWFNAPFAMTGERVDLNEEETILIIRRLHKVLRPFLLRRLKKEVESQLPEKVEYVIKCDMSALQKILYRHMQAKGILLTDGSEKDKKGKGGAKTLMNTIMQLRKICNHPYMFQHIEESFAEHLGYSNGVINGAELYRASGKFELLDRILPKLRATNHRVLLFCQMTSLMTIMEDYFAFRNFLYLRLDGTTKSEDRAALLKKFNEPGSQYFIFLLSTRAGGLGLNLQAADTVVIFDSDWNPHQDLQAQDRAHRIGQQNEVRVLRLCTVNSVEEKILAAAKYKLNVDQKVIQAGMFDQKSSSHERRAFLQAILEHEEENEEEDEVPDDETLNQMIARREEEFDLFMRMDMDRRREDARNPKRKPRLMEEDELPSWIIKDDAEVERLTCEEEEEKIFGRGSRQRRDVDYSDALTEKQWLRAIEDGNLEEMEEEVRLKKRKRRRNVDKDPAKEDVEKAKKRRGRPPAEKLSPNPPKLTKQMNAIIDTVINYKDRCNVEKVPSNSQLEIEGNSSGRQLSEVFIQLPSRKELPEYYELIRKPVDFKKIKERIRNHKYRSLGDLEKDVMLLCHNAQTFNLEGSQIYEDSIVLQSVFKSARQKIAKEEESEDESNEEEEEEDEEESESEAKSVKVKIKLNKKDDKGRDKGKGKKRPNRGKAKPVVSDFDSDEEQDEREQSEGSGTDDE

Row | Compound | IC50 (BRM) | BRM Max % Inhibition (BRM; Table 5) | IC50 (BRG-1) | BRG1 Max % Inhibition (BRG-1; Table 5) | BRM Max % Inhibition (BRM; Table 6) | BRG1 Max % Inhibition (BRG-1; Table 6)
1 | O=C(CNC(=O)c1cc2c(s1)CCC2)Nc1nc(-c2ccccc2)cs1 [Compound 79, N-[2-oxo-2-[(4-phenylthiazol-2-yl)amino]ethyl]-5,6-dihydro-4H-cyclopenta[b]thiophene-2-carboxamide] | < 1000 nM | >30% | 1000 to 10000 nM | >30% | – | –
2 | Nc1ccc(C(=O)NCC(=O)Nc2nc(-c3cccc(-c4cc[n+]([O-])cc4)c3)cs2)cc1 [Compound 156, 4-(3-(2-(2-(4-aminobenzamido)acetamido)thiazol-4-yl)phenyl)pyridine 1-oxide] | 100 to 1000 nM | – | 100 to 1000 nM | – | >95% | >90%
3 | CN(C)S(=O)(=O)c1cccc(C(=O)NCC(=O)Nc2nc(-c3ccccn3)cs2)c1 [Compound 32, 3-(dimethylsulfamoyl)-N-[2-oxo-2-[[4-(2-pyridyl)thiazol-2-yl]amino]ethyl]benzamide] | > 10000 nM | >30% | > 10000 nM | <30% | – | –
4 | CN(C)CCN(C)c1cc(-c2cccc(-c3csc(NC(=O)CNC(=O)c4ccc(N)cc4)n3)c2)ccn1 [Compound 191, 4-amino-N-[2-[[4-[3-[2-[2-(dimethylamino)ethyl-methyl-amino]-4-pyridyl]phenyl]thiazol-2-yl]amino]-2-oxo-ethyl]benzamide] | < 100 nM | – | 100 to 1000 nM | – | >95% | >95%
5 | Nc1ccc(C(=O)NCC(=O)Nc2nc(-c3cccc(-c4cccc(CO)c4)c3)cs2)cc1 [Compound 154, 4-amino-N-(2-((4-(3′-(hydroxymethyl)-[1,1′-biphenyl]-3-yl)thiazol-2-yl)amino)-2-oxoethyl)benzamide] | < 100 nM | – | < 100 nM | – | >95% | >95%
6 | CS(=O)(=O)c1ccnc(C(=O)NCC(=O)Nc2nc(-c3cccc(-c4ccncc4)c3)cs2)c1 [Compound 104, 4-methylsulfonyl-N-[2-oxo-2-[[4-[3-(4-pyridyl)phenyl]thiazol-2-yl]amino]ethyl]pyridine-2-carboxamide] | < 100 nM | – | < 100 nM | – | >70% | >60%
7 | O=C(CNC(=O)c1ccc2[nH]ncc2c1)Nc1nc(-c2cccc(-c3ccncc3)c2)cs1 [Compound 96, N-(2-oxo-2-((4-(3-(pyridin-4-yl)phenyl)thiazol-2-yl)amino)ethyl)-1H-indazole-5-carboxamide] | 100 to 1000 nM | – | 1000 to 10000 nM | – | >70% | >70%
8 | CNC(=O)C(C)(C)c1cc(-c2cccc(-c3csc(NC(=O)CNC(=O)c4ccc(N)cc4)n3)c2)ccn1 [Compound 226, 4-amino-N-[2-[[4-[3-[2-[1,1-dimethyl-2-(methylamino)-2-oxo-ethyl]-4-pyridyl]phenyl]thiazol-2-yl]amino]-2-oxo-ethyl]benzamide] | < 100 nM | – | < 100 nM | – | >95% | >95%
9 | Nc1ccc(C(=O)NCC(=O)Nc2nc(-c3cccc(-c4ccn(CC(=O)O)n4)c3)cs2)cc1 [Compound 210, 2-[3-[3-[2-[[2-[(4-aminobenzoyl)amino]acetyl]amino]thiazol-4-yl]phenyl]pyrazol-1-yl]acetic acid] | 100 to 1000 nM | – | 100 to 1000 nM | – | >95% | >80%
10 | CSCC[C@H](NC(=O)c1cccc(CN)c1)C(=O)Nc1nc(-c2ccccc2)cs1 [Compound 75] | > 10000 nM | >50% | > 10000 nM | >60% | – | –
11 | CN(C)C1CCCN(c2cc(-c3cccc(-c4csc(NC(=O)CNC(=O)c5ccc(N)cc5)n4)c3)ccn2)C1 (centres unmarked) [Compound 225, 4-amino-N-[2-[[4-[3-[2-[3-(dimethylamino)-1-piperidyl]-4-pyridyl]phenyl]thiazol-2-yl]amino]-2-oxo-ethyl]benzamide] | 100 to 1000 nM | – | 100 to 1000 nM | – | >80% | >90%
12 | Nc1ccc(C(=O)NCC(=O)Nc2nc(-c3ccc4cc[nH]c(=O)c4c3)cs2)cc1 [Compound 147, 4-amino-N-(2-oxo-2-((4-(1-oxo-1,2-dihydroisoquinolin-7-yl)thiazol-2-yl)amino)ethyl)benzamide] | < 100 nM | – | < 100 nM | – | >95% | >95%
13 | Nc1ccc(C(=O)NCC(=O)Nc2nc(-c3cccc(-c4ccnc(N5CCCCS5(=O)=O)c4)c3)cs2)cc1 [Compound 203, 4-amino-N-[2-[[4-[3-[2-(1,1-dioxothiazinan-2-yl)-4-pyridyl]phenyl]thiazol-2-yl]amino]-2-oxo-ethyl]benzamide] | 100 to 1000 nM | – | 100 to 1000 nM | – | >80% | >80%
14 | CSCC[C@H](NC(=O)c1ccc(S(=O)(=O)N(C)C)s1)C(=O)Nc1nc(-c2ccccc2)cs1 [Compound 62, 5-(dimethylsulfamoyl)-N-[(1S)-3-methylsulfanyl-1-[(4-phenylthiazol-2-yl)carbamoyl]propyl]thiophene-2-carboxamide] | 1000 to 10000 nM | >80% | 1000 to 10000 nM | >70% | – | –
15 | CN(C)Cc1cc(-c2cccc(-c3csc(NC(=O)CNC(=O)c4ccc(N)cc4)n3)c2)ccn1 [Compound 168, 4-amino-N-(2-((4-(3-(2-((dimethylamino)methyl)pyridin-4-yl)phenyl)thiazol-2-yl)amino)-2-oxoethyl)benzamide] | < 100 nM | – | < 100 nM | – | >95% | >95%
16 | Nc1ccc(C(=O)NCC(=O)Nc2nc(-c3cccc(-c4ccc(CO)cc4)c3)cs2)cc1 [Compound 153, 4-amino-N-(2-((4-(4′-(hydroxymethyl)-[1,1′-biphenyl]-3-yl)thiazol-2-yl)amino)-2-oxoethyl)benzamide] | < 100 nM | – | < 100 nM | – | >90% | >80%
17 | NCCn1ccc2ccc(-c3csc(NC(=O)CNC(=O)c4ccc(N)cc4)n3)cc2c1=O [Compound 171, 4-amino-N-(2-((4-(2-(2-aminoethyl)-1-oxo-1,2-dihydroisoquinolin-7-yl)thiazol-2-yl)amino)-2-oxoethyl)benzamide] | 100 to 1000 nM | – | 100 to 1000 nM | – | >95% | >95%
18 | CS(=O)(=O)c1cccc(C(=O)NCC(=O)Nc2nc(-c3cccc(-c4nccs4)c3)cs2)c1 [Compound 98, 3-(methylsulfonyl)-N-(2-oxo-2-((4-(3-(thiazol-2-yl)phenyl)thiazol-2-yl)amino)ethyl)benzamide] | 100 to 1000 nM | – | 100 to 1000 nM | – | >90% | >70%
19 | Cc1cc(-c2cccc(-c3csc(NC(=O)CNC(=O)c4ccc(N)cc4)n3)c2)ccn1 [Compound 195, 4-amino-N-[2-[[4-[3-(2-methyl-4-pyridyl)phenyl]thiazol-2-yl]amino]-2-oxo-ethyl]benzamide] | < 100 nM | – | < 100 nM | – | >95% | >95%
20 | CNC(=O)c1ccc(C(=O)N[C@@H](CCSC)C(=O)Nc2nc(-c3ccccc3)cs2)cc1 [Compound 72, N4-methyl-N1-[(1S)-3-methylsulfanyl-1-[(4-phenylthiazol-2-yl)carbamoyl]propyl]terephthalamide] | > 10000 nM | >60% | > 10000 nM | >50% | – | –
21 | Cn1cnc2ccc(-c3csc(NC(=O)CNC(=O)c4cccc(S(C)(=O)=O)c4)n3)cc2c1=O [Compound 93, N-(2-((4-(3-methyl-4-oxo-3,4-dihydroquinazolin-6-yl)thiazol-2-yl)amino)-2-oxoethyl)-3-(methylsulfonyl)benzamide] | 100 to 1000 nM | – | 100 to 1000 nM | – | >90% | >90%
22 | Nc1ccc(C(=O)NCC(=O)Nc2nc(-c3cccc(COC4CCOCC4)c3)cs2)cc1 [Compound 230, 4-amino-N-[2-oxo-2-[[4-[3-(tetrahydropyran-4-yloxymethyl)phenyl]thiazol-2-yl]amino]ethyl]benzamide] | 100 to 1000 nM | – | 100 to 1000 nM | – | >95% | >90%
23 | Nc1ccc(C(=O)NCC(=O)Nc2nc(-c3cccc(COc4ccncc4)c3)cs2)cc1 [Compound 197, 4-amino-N-[2-oxo-2-[[4-[3-(4-pyridyloxymethyl)phenyl]thiazol-2-yl]amino]ethyl]benzamide] | < 100 nM | – | < 100 nM | – | >90% | >80%
24 | Nc1ccc(C(=O)NCC(=O)Nc2nc(-c3cccc(C4CCCCO4)c3)cs2)cc1 (centres unmarked) [Compound 239, 4-amino-N-[2-oxo-2-[[4-(3-tetrahydropyran-2-ylphenyl)thiazol-2-yl]amino]ethyl]benzamide] | 100 to 1000 nM | – | 100 to 1000 nM | – | >90% | >80%
25 | CC(C)(O)c1cccc(-c2csc(NC(=O)CNC(=O)c3ccc(N)cc3)n2)c1 [Compound 198, 4-amino-N-[2-[[4-[3-(1-hydroxy-1-methyl-ethyl)phenyl]thiazol-2-yl]amino]-2-oxo-ethyl]benzamide] | 100 to 1000 nM | – | 100 to 1000 nM | – | >80% | >60%
26 | CSCC[C@H](NC(=O)c1cc2ccccc2s1)C(=O)Nc1nc(-c2ccccc2)cs1 [Compound 71, (S)—N-(4-(methylthio)-1-oxo-1-((4-phenylthiazol-2-yl)amino)butan-2-yl)benzo[b]thiophene-2-carboxamide] | 1000 to 10000 nM | >60% | > 10000 nM | >50% | – | –
